Values quoted from earlier work in patent publication US20080146525A1 (priority 2006, published 2008).

Key:
[1] = test system: rats
[2] = test system: nerve growth factor
[3] = test system: extra-cellular acetylcholine and dopamine levels; conditions: versus compositions commonly used to treat Alzheimer's disease; rats
[4] = animal models and humans
[5] = healthy adolescents
[6] = administered orally
[7] = test system: neurotransmitters; conditions: humans

## CC(=C(CCOC(=O)C(C)C)SSC(CCOC(=O)C(C)C)=C(C)N(C=O)Cc1cnc(C)nc1N)N(C=O)Cc1cnc(C)nc1N (stereo in doubt) [Sulbutiamine]
[1]
  memory effect: memory enhancing effects

## C/C=C1\[C@H]2C=C(C)C[C@]1(N)c1ccc(=O)[nH]c1C2 [Huperzine-A]
[2]
  amount of nerve growth factor: increase the amount of nerve growth factor
[3]
  ability to increase extra-cellular acetylcholine and dopamine levels: greater ability to increase extra-cellular acetylcholine and dopamine levels
[4]
  effect on memory deficits: improves memory deficits
[5]
  memory and learning: improve memory and learning
[6]
  bioavailability: good bioavailability

## N[C@@H](Cc1ccc(O)cc1)C(=O)O [Tyrosine]
[7]
  neurotransmitters after oral administration: increased of neurotransmitters
